This passage reports IC50 results from patent publication US20060035901A1, “Methotrexate derivatives useful for treating cancer and arthritis” (Serenex, Inc., priority 2004, published 2006).

One assay concerns the target EGFR (Homo sapiens, UniProt P00533). In words: Elution of EGFR from ATP-Sepharose column by compound (Proteome Mining), IC50 estimate. Format: binding. As to conditions: estimated from percent of protein eluted from ATP-Sepharose column, gel densitometry; read-out: Approximate IC50 for EGFR. The protocol:
(§1) A proteome containing a known quantity of Her2, EGFR, and B-Raf was run over an ATP-Sepharose™ column in order to bind all purine-binding proteins. See, WO 00/63694 and U.S. Provisional Application No. 60/453,697 filed Jan. 22, 2003, each of which is incorporated by reference in its entirety. The ATP-Sepharose™ was washed several times, and then eluted with the compound of Formula III. The experiment was run in duplicate at concentrations of 20 μM, 100 μM, and 500 μM of the compound of Formula III. The eluted fractions were run on a 1-dimensional SDS polyacrylamide gel. Gels were stained with a fluorescent stain such as sypro ruby (a highly sensitive fluorescent protein stain that can readily detect less than 1 fmol of total protein, i.e., less than 0.04 ng for a 40 kDa protein). The gels were imaged using a standard flat bed gel imager and the amount of protein estimated by densiometry. The percent of protein eluted from the column at each concentration was determined and IC50 values were calculated from these estimates. Where necessary, the eluted proteins were cut out of the gel, and identified using mass spectral techniques.
(§2) These steps were repeated with each of the compounds of Formulas IV-X, MTX, and the c series derivative.

The target in another assay is B-Raf (Homo sapiens, UniProt P15056). In words: Elution of B-Raf from ATP-Sepharose column by compound (Proteome Mining), IC50 estimate. Format: binding. Particulars: estimated from percent of protein eluted from ATP-Sepharose column, gel densitometry; read-out: Approximate IC50 for B-Raf. The method, then: as §1, §2
Sequence of B-Raf (P15056 whole entry, species assumed): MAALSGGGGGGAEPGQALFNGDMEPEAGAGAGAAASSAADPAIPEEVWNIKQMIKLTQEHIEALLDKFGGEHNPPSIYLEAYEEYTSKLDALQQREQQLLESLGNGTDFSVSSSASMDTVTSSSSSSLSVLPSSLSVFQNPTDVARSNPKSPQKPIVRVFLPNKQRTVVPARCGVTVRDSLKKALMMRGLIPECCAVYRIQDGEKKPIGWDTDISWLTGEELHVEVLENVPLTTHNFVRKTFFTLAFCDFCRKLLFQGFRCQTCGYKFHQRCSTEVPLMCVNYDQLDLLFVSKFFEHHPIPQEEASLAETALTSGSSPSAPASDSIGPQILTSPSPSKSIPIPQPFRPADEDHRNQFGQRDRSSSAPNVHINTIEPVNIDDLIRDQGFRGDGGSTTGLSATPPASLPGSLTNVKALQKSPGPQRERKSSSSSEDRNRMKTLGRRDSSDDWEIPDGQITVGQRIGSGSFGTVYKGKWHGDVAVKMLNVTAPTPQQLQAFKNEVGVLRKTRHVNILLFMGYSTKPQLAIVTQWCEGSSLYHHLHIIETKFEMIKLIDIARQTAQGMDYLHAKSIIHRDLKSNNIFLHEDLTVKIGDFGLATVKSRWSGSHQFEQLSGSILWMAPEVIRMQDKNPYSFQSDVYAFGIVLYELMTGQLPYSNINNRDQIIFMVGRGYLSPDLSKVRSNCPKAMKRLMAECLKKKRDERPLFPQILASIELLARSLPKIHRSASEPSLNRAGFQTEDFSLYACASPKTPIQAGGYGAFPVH
Assay [1] concerns the target T1, pyruvate carboxylase (PYC) (Sus scrofa, UniProt A0A8W4F6F0).
T1 construct: a porcine liver proteome was run over an ATP-Sepharose™ column; from tissue; host or cells: porcine liver
T1 sequence (A0A8W4F6F0 1-1157): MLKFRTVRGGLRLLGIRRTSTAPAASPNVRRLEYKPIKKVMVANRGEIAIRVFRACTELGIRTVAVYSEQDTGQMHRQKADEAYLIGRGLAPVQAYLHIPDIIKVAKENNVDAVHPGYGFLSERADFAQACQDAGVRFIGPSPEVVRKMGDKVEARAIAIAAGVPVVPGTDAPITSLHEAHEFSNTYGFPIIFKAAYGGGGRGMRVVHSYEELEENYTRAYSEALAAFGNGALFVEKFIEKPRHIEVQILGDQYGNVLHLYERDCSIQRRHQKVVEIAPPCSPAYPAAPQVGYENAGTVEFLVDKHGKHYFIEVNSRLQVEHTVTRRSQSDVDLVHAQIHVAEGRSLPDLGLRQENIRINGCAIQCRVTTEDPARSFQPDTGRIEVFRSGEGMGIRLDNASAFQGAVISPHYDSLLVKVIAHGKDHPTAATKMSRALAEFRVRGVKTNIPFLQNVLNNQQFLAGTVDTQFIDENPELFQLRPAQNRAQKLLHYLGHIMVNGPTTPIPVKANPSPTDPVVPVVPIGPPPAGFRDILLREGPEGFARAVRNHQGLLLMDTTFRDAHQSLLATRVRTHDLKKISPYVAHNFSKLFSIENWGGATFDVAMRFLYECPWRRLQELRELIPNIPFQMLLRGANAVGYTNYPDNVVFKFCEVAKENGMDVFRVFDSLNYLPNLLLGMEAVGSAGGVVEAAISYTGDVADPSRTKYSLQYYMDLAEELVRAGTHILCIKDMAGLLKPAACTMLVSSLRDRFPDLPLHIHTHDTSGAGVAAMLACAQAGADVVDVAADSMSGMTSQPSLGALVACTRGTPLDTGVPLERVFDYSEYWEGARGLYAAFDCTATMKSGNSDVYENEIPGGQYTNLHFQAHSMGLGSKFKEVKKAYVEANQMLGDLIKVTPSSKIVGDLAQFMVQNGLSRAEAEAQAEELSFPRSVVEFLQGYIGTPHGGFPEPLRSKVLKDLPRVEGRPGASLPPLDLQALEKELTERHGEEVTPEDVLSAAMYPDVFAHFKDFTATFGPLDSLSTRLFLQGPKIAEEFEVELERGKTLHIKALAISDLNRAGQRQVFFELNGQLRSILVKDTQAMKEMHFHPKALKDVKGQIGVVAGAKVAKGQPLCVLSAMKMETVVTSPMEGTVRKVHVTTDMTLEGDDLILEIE
In words: Elution of PYC from ATP-Sepharose column loaded with porcine liver proteome, IC50 estimate. Format: binding. Particulars: estimated from percent of protein eluted from ATP-Sepharose column, read-out: Approximate IC50 for PYC. The method, then: Similar experiments were carried out to compare the IC50 values for PYC, PCCA, and PCCB. In these trials, a porcine liver proteome was run over an ATP-Sepharose™ column to bind all purine-binding proteins. The ATP-Sepharose™ column was washed several times, and then eluted with the compound of Formula III at concentrations of 1 μM, 5 μM, 10 μM, 50 μM, 100 μM, and 500 μM to identify proteins that bound to this compound. (The amount of protein eluted at the higher concentration ranges plateaued, thus confirming that the entire fraction of bound protein had been eluted.) The eluted fractions were run on a 1-dimensional SDS polyacrylamide gel.
(§3) Gels were stained with a fluorescent stain such as sypro ruby (a highly sensitive fluorescent protein stain that can readily detect less than 1 fmol of total protein, i.e., less than 0.04 ng for a 40 kDa protein). The gels were imaged using a standard flat bed gel imager and the amount of protein estimated by densiometry. The percent of protein eluted from the column at each concentration was determined and IC50 values were calculated from these estimates. Where necessary, the eluted proteins were cut out of the gel, and identified using mass spectral techniques.
These steps were repeated with each of the compounds of Formulas IV-X, MTX, and the c series derivative. The values obtained were then compared to those for DHFR.

In assay [2] the target is T2, propionyl-CoA carboxylase subunit beta (PCCB) (Sus scrofa, UniProt P79384).
T2 construct: a porcine liver proteome was run over an ATP-Sepharose™ column; from tissue; host or cells: porcine liver
T2 sequence (P79384 29-539): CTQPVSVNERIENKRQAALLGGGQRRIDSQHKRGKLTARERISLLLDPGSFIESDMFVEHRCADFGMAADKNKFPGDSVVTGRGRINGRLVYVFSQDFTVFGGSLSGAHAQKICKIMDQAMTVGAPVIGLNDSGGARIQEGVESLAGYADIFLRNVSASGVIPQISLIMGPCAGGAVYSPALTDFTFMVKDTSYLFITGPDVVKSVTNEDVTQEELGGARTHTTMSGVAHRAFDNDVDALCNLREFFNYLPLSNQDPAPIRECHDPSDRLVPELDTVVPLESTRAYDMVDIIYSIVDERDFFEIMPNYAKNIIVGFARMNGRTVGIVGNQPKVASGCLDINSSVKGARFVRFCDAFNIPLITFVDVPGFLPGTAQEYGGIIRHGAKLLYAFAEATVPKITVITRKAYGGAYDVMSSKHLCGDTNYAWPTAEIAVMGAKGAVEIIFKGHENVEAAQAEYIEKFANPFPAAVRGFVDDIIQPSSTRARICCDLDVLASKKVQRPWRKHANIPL
T2 sequence (P0DTA4 53-730 partner): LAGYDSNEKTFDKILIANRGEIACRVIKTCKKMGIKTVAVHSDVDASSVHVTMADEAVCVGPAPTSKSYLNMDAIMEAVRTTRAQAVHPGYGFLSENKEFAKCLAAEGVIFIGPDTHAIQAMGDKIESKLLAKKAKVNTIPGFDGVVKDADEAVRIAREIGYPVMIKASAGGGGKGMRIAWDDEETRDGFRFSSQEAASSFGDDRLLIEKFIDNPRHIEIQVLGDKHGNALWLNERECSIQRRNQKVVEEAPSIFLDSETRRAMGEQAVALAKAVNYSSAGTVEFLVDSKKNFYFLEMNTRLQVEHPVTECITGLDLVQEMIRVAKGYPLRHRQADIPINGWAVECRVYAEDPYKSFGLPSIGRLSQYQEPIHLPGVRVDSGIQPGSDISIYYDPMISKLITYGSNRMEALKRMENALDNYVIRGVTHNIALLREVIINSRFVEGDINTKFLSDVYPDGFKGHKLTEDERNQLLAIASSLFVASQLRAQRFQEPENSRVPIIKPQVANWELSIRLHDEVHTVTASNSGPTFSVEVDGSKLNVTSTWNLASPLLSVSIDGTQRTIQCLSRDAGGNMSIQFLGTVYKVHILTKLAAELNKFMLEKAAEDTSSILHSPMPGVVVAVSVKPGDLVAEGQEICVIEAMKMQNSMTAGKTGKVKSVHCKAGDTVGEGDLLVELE
Description: Elution of PCCB from ATP-Sepharose column loaded with porcine liver proteome, IC50 estimate. Format: binding. As to conditions: estimated from percent of protein eluted from ATP-Sepharose column, read-out: Approximate IC50 for PCCB. The protocol:
(§4) Similar experiments were carried out to compare the IC50 values for PYC, PCCA, and PCCB. In these trials, a porcine liver proteome was run over an ATP-Sepharose™ column to bind all purine-binding proteins. The ATP-Sepharose™ column was washed several times, and then eluted with the compound of Formula III at concentrations of 1 μM, 5 μM, 10 μM, 50 μM, 100 μM, and 500 μM to identify proteins that bound to this compound.
as §3
(§5) The values obtained were then compared to those for DHFR.

The target in the next assay is T3, DHFR (Homo sapiens, UniProt P00374).
T3 sequence (P00374 1-187): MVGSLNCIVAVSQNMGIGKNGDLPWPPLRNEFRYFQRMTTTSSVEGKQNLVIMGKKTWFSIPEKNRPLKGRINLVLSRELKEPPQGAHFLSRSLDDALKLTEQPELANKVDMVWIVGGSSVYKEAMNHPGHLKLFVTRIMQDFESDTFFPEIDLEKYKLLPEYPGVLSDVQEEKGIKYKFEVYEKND
In words: DHFR enzymatic assay. Format: biochemical. Particulars: determined by enzymatic assay.

Assay [3] addresses T4, propionyl-CoA carboxylase subunit alpha (PCCA) (Sus scrofa, UniProt P0DTA4).
T4 construct: a porcine liver proteome was run over an ATP-Sepharose™ column; from tissue; host or cells: porcine liver
T4 sequence (P0DTA4 53-730): T2 sequence (P0DTA4 53-730 partner)
T4 sequence (P79384 29-539 partner): T2 sequence (P79384 29-539)
In words: Elution of PCCA from ATP-Sepharose column loaded with porcine liver proteome, IC50 estimate. As to conditions: estimated from percent of protein eluted from ATP-Sepharose column, read-out: Approximate IC50 for PCCA. Format: binding. The protocol: as §4, §3, §5

Another assay addresses Her2 (Homo sapiens, UniProt P04626). Description: Elution of Her2 from ATP-Sepharose column by compound (Proteome Mining), IC50 estimate. Format: binding. As to conditions: estimated from percent of protein eluted from ATP-Sepharose column, gel densitometry; read-out: Approximate IC50 for Her2. The method, then: as §1, with “See, WO 00/63694 and U.S. Provisional Application No. 60/453,697 filed Jan. 22, 2003, each of which is incorporated by reference in its entirety.” left out

Structures are written as SMILES.

Sequence of EGFR (P00533 25-1210, species assumed): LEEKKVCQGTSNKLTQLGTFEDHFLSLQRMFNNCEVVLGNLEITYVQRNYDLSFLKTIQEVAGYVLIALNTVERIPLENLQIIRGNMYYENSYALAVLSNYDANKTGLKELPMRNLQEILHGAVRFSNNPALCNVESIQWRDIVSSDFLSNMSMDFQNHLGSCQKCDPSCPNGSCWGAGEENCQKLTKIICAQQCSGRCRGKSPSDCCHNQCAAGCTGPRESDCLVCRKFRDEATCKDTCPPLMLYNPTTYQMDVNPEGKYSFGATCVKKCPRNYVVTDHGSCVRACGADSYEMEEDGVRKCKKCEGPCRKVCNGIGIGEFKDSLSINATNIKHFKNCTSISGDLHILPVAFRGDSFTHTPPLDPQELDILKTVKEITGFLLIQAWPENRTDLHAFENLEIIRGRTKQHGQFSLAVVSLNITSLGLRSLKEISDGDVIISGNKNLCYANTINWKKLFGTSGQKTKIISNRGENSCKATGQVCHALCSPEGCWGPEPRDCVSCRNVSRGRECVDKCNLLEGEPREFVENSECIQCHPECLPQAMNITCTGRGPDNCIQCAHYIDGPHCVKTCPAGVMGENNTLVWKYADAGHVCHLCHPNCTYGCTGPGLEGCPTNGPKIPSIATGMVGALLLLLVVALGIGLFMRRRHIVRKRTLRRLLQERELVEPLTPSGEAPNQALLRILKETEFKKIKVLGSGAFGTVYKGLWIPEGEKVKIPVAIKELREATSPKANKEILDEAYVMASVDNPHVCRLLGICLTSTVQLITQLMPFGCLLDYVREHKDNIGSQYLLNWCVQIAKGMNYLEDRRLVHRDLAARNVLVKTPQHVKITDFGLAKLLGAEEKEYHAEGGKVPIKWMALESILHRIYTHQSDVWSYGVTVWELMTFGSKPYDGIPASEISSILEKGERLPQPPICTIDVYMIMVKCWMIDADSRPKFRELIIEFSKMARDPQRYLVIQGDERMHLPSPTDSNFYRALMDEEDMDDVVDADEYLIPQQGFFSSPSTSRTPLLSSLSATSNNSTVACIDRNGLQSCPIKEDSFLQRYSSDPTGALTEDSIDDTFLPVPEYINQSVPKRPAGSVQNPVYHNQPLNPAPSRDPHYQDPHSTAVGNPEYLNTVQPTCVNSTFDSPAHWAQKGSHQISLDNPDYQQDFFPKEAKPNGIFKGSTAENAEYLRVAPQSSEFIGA
Sequence of Her2 (P04626 23-1255, species assumed): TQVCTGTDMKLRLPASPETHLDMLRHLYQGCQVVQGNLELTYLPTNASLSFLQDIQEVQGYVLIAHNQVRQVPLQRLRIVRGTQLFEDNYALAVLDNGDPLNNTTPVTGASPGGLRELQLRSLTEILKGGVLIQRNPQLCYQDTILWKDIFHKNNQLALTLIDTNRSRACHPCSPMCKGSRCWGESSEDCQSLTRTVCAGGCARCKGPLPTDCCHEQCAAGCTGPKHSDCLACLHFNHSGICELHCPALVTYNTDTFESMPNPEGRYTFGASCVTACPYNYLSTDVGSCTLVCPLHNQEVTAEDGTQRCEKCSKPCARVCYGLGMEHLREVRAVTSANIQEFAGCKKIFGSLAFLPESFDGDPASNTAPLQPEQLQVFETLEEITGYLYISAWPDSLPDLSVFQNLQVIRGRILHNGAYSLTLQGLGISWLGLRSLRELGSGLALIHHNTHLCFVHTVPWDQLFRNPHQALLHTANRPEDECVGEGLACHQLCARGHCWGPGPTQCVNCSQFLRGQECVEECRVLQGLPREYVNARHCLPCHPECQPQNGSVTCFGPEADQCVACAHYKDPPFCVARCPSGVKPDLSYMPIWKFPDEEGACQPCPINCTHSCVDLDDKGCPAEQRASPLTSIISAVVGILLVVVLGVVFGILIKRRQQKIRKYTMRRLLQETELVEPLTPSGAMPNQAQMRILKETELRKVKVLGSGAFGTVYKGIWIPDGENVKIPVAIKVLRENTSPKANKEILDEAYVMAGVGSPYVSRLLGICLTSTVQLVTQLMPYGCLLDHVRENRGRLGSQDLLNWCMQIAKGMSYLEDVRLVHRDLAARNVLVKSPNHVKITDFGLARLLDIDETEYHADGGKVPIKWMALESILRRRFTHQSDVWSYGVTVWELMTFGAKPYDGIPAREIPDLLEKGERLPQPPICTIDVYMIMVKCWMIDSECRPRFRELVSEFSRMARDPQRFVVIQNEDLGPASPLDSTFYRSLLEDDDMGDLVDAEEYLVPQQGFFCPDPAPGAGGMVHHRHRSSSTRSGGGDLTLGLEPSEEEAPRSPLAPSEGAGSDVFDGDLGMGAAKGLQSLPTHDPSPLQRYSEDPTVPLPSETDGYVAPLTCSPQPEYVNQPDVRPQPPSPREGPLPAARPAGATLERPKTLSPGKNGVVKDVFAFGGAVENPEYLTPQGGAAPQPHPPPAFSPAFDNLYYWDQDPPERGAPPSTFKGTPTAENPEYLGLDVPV

For `CN(Cc1cnc2nc(N)nc(N)c2n1)c1ccc(C(=O)N[C@@H](CCC(=O)O)C(=O)O)cc1` [MTX, N-[4-[[(2,4-diamino-6-pteridinyl)methyl]methylamino]benzoyl]-L-glutamic acid, reference compound], the IC50 (in general, the point on the concentration scale where inhibition reaches its midpoint) on EGFR is > 15 µM; at B-Raf, ≥ 10 µM; in assay [1], 0.35 µM.
With `CC(C)(C)CN(Cc1cnc2nc(N)nc(N)c2n1)c1ccc(C(=O)NC(CCC(=O)O)C(=O)O)cc1` (stereo not drawn) [Formula X], the IC50 was 4 µM in assay [2], 4.35 µM in assay [1], 0.016 µM at DHFR and 2.5 µM in assay [3].
As to `Cc1cc(C(=O)NC(CCC(=O)O)C(=O)O)ccc1N(Cc1cnc2nc(N)nc(N)c2n1)CC1CC1` (stereo not drawn) [Formula V], the IC50 in assay [2] was 3.5 µM; at Her2, 5 µM; in assay [1], 4 µM; in assay [3], 2 µM.
As to `CC(C)=CCN(Cc1cnc2nc(N)nc(N)c2n1)c1ccc(C(=O)NC(CCC(=O)O)C(=O)O)cc1C` (stereo not drawn) [Formula VI], the results for the 50% inhibitory concentration (IC50) in assay [2], in assay [1] and in assay [3] were 1 µM, 0.5 µM and 1 µM, respectively.
As for `Cc1cc(C(=O)NC(CCC(=O)O)C(=O)O)ccc1N(Cc1cnc2nc(N)nc(N)c2n1)CC(C)(C)C` (stereo not drawn) [Formula IV], the IC50 in assay [2] is 10 µM; in assay [1], 5 µM; on DHFR it was 0.017 µM; in assay [3], 6 µM.
